The text below walks through data of patent US4565817A, “Theophyllinyl-alkyl-oxadiazoles, process for the preparation thereof and pharmaceutical compositions containing same” (Chinoin Gyogyszer-es Vegyeszeti Termekek Gyara R.T., priority 1982, dated 1986).

Molecules are shown by their SMILES.

One data set in a line: in vivo. Conditions: mouse.
For the next data set, the system named is guinea pigs. Briefly: Cough relieving against 15% citric acid spray in guinea pigs, one hour after administration. Conditions: Cavia porcellus, im, 1 h, one hour after 50 mg/kg i.m., % related to the control, read-out: Cough inhibition Q %. Type of data set: in vivo. The procedure:
Q = Cough relieving induced by 15% citric acid spray in guinea pigs one
hour after administration of the substances (50 mg/kg, i.m.) expressed in
% related to the control.

Another data set deals with guinea pig. Briefly: Bronchial spasm induced by histamine, in vivo according to Konzett and Rossler. The source says: (§1) A special group of the compounds of the formula I are those compounds in which R1 stands for alkyl, aralkyl, or aryl. […] Path. […] This activity is significant in relieving cough of the asthmatic type.
Data set [1] concerns spasm caused by acetyl choline or serotonine. Briefly: Spasm caused by acetyl choline or serotonine.
From the text: as §1

The test system of data set [2] is trachea stria isolated from rabbit. Briefly: Bronchial spasm induced by histamine, in vitro on isolated trachea stria.
From the text: as §1

Data set [3] can be described thus: General pharmacological activity (cough relieving, bronchodilatory, antiasthmatic, antiinflammatory). Conditions: in vivo.
Data set [4] concerns rat paw carrageenin oedema. Nature of the data set: Rat paw carrageenin oedema test. Conditions: i.m. administration, compared with indomethacin. The data set is classed as in vivo. An excerpt: Another special group of the compounds according to the invention are the compounds having an alkyl amino group in place of R1. […] This activity is important in cough relieving accompanied by inflammation in the respiration system.
On the technique in general: In the carrageenan paw model, swelling and tenderness develop within hours.

As for `Cn1c(=O)c2c(ncn2Cc2noc(CCN3CCCCC3)n2)n(C)c1=O`, the results for the LD50 in the data set “in vivo” (iv) and in “in vivo” (po) were 240 mg/kg and 1550 mg/kg, respectively. For the same compound, the inhibition in vivo at 50 mg/kg in the data set on guinea pigs was determined as 54.1%.

As to `Cn1c(=O)c2c(ncn2Cc2noc(CCN3CCOCC3)n2)n(C)c1=O`, the LD50 (in general, the dose at which mortality reaches 50%) in the data set “in vivo” (iv) amounted to 230 mg/kg; in the data set “in vivo” (po), 1530 mg/kg. Moreover, the inhibition in vivo at 50 mg/kg with guinea pigs was determined as 55.4%.

Take `CN1CCN(CCc2nc(Cn3cnc4c3c(=O)n(C)c(=O)n4C)no2)CC1`: the LD50 in “in vivo” (iv) amounted to 224 mg/kg; in the data set “in vivo” (po), 1670 mg/kg. Also, the inhibition in vivo at 50 mg/kg in the data set on guinea pigs is 54.5%.

As for `Cn1c(=O)c2c(ncn2CCc2noc(CCN3CCOCC3)n2)n(C)c1=O`, the LD50 in the data set “in vivo” (iv) stood at 217 mg/kg; in the data set “in vivo” (po), 2600 mg/kg. Moreover, the inhibition in vivo at 50 mg/kg with guinea pigs came to 48.6%.

`Cn1c(=O)c2c(ncn2CCCc2noc(CCN3CCOCC3)n2)n(C)c1=O`: the LD50 in “in vivo” (iv) came out at 220 mg/kg; in “in vivo” (po) it was 1900 mg/kg. In the data set on guinea pigs, the inhibition in vivo at 50 mg/kg stood at 47.7%.

Take `CN1CCN(CCc2nc(CC(O)Cn3cnc4c3c(=O)n(C)c(=O)n4C)no2)CC1` (stereo not shown): the figures for the LD50 in the data set “in vivo” (iv) and in the data set “in vivo” (po) were 215 mg/kg and 1800 mg/kg, respectively. For the same compound, the inhibition in vivo at 50 mg/kg in the data set with guinea pigs was 48.6%.

For the compound `CC(C)NCCc1nc(CCn2cnc3c2c(=O)n(C)c(=O)n3C)no1` [(CH2)2 (CH2)2 NHi.Pr], the LD50 was determined as 200 mg/kg in the data set “in vivo” (iv) and 1750 mg/kg in the data set “in vivo” (po). Also, the inhibition in vivo at 50 mg/kg in the data set on guinea pigs came to 54.7%.

Compound `COc1ccc2c3c1O[C@H]1[C@@H](O)C=C[C@H]4[C@@H](C2)N(C)CC[C@@]341` [Codeine, reference compound] registered an LD50 in the data set “in vivo” (iv) of 54 mg/kg. In the data set on guinea pigs, the inhibition in vivo at 50 mg/kg was 50%.

Turning to `Cc1nc(Cn2cnc3c2c(=O)n(C)c(=O)n3C)no1` [Example 1, 7-[(5-methyl-1,2,4-oxadiazol-3-yl)-methyl]-theophylline], in the data set with guinea pig (histamine-induced bronchial spasm, compared with theophylline ethylene diamine), the duration of activity entry is given as “considerably longer than in case of theophylline ethylene diamine”. In the data set on guinea pig (in vivo, guinea pig, Konzett and Rossler, histamine), the “bronchial spasm induced by histamine (in vivo)” value was “decreases the bronchial spasm induced by histamine”. The inhibition in vivo at 50 mg/kg in the data set on guinea pigs worked out at 54.3%. Besides, in data set [1] (acetyl choline), the “spasm caused by acetyl choline” value is “prevents the spasm caused by acetyl choline or serotonine”. The “spasm caused by serotonine” value in data set [1] (serotonine) is reported as “prevents the spasm caused by acetyl choline or serotonine”. In addition, the “bronchial spasm induced by histamine (in vitro)” value in data set [2] is given as “decreases the bronchial spasm induced by histamine”.

Turning to `CCN(CC)CCc1nc(Cn2cnc3c2c(=O)n(C)c(=O)n3C)no1` [Example 4, 7-[{5-(2-diethylamino-ethan-1-yl)-1,2,4-oxadiazol-3-yl}-methyl]-theophylline], in data set [3], the “pharmacological activity in words” value is “cough relieving and bronchodilatory activity”. The LD50 in the data set “in vivo” (iv) was determined as 215 mg/kg; in “in vivo” (po) it was 1400 mg/kg. In the data set with guinea pigs, the inhibition in vivo at 50 mg/kg is 56.7%. The anti-inflammatory activity result in data set [4] is given as “strong (comparable with indomethacin) anti-inflammatory activity”.

In the case of `CCN(CC)CCc1nc(CCCn2cnc3c2c(=O)n(C)c(=O)n3C)no1` [Example 12, 7-[3-5-(2-diethylamino-ethan-1-yl)-1,2,4-oxadiazol-3-yl-propan-1-yl]-theophylline-maleinate], the LD50 turned out to be 237 mg/kg in “in vivo” (iv) and 2250 mg/kg in the data set “in vivo” (po). Further, the inhibition in vivo at 50 mg/kg in the data set on guinea pigs was 51.5%.

In the case of `CCCc1nc(Cn2cnc3c2c(=O)n(C)c(=O)n3C)no1` [Example 18], the values for the LD50 in “in vivo” (iv) and in “in vivo” (po) were 390 mg/kg and 1400 mg/kg, respectively. For the same compound, in the data set with guinea pigs, the inhibition in vivo at 50 mg/kg is 51.1%.

For `c1ccc(C(Cc2noc(CCN3CCCCC3)n2)c2ccccc2)cc1` [Prenoxdiazine, reference compound], the figures for the LD50 in the data set “in vivo” (iv) and in the data set “in vivo” (po) were 34 mg/kg and 920 mg/kg, respectively. For the same compound, the inhibition in vivo at 50 mg/kg in the data set with guinea pigs turned out to be 44.5%.
